Columns and labels:
Type in all cases: in vivo
monochoria (Mo) [1] = assay: Test Example 1: herbicidal effects by flooded paddy field treatment; parameters: herbicidal effects, Mo (monochoria):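 0-5 growth inhibition grade; 5 = over 90%; 4 = 70-90%; 3 = 50-70%; 2 = 30-50%; 1 = 10-30%; 0 = under 10%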; conditions: for Herbicidal effect index, Mo: dose 100 gai/10a, examined on 21st day after treatment, index 0-5 per Table 44; for herbicidal effects, Mo (monochoria): dose 100 g active ingredient per 10 ares, examined on the 21st day after treatment, standards of Table 44;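 on Herbicidal effect index, Mo: 0-5 growth inhibition grade; 5 = over 90%; 4 = 70-90%; 3 = 50-70%; 2 = 30-50%; 1 = 10-30%; 0 = under 10%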
Procedure, shortened: (§1)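 Seeds sown in puddled paddy soil and flooded to 3 cm. Next day, a water-diluted wettable powder was dripped onto the water surface at 100 g active ingredient per 10 ares. Plants were grown in a greenhouse, and herbicidal effect was scored against a rating standard 21 days after treatment.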

monochoria (Mo) [2] = assay: Test Example 4: selectivity for a crop plant by flooded paddy field treatment; parameters: scale not given here; conditions: for Mo (herbicidal effects, index): dose 25 g active ingredient per 10 ares, examined on the 21st day after treatment; for Mo (herbicidal effect index): monochoria, dose 25 gai/10a, 21st day after treatment, index per Table 44
Procedure, shortened: (§2)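 Paddled paddy soil in pots sown with barnyard grass and monochoria, with second-leaf-stage rice transplanted, under 3 cm of water. Next day a diluted wettable powder was dripped onto the water at 25 g active ingredient per 10 ares; effects scored on a rating scale 21 days later in a greenhouse.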

barnyard grass (Eo) [3] = assay: as above; parameters: scale not given here; conditions: for Eo (herbicidal effects, index): dose 25 g active ingredient per 10 ares, examined on the 21st day after treatment; for Eo (herbicidal effect index): barnyard grass, dose 25 gai/10a, 21st day after treatment, index per Table 44
Procedure, shortened: as §2

rice (Or) = assay: as above; parameters: scale not given here; conditions: rice transplanted at second leaf stage; for Or (effect on crop plant rice, index): dose 25 g active ingredient per 10 ares, examined on the 21st day after treatment; for Or (herbicidal effect index on crop): dose 25 gai/10a, 21st day after treatment, index per Table 44
Procedure, shortened: as §2

barnyard grass (Ec) = assay: Test Example 2: herbicidal effects by upland soil treatment; parameters: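 0-5 growth inhibition grade; 5 = over 90%; 4 = 70-90%; 3 = 50-70%; 2 = 30-50%; 1 = 10-30%; 0 = under 10%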; conditions: dose 100 g active ingredient per 10 ares, examined on the 21st day after treatment, standards of Table 44
Procedure, shortened: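 Pre-emergence test: barnyard grass and green foxtail sown in upland soil, then soil surface sprayed with wettable-powder formulation at 100 g active ingredient per 10 ares (100 l per 10 ares). Grown in greenhouse; herbicidal effect scored on a rating scale 21 days after treatment.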

green foxtail (Se) = assay: as above; conditions: dose 100 g active ingredient per 10 ares, examined on the 21st day after treatment, standards of Table 44;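 further: 0-5 growth inhibition grade; 5 = over 90%; 4 = 70-90%; 3 = 50-70%; 2 = 30-50%; 1 = 10-30%; 0 = under 10%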
Description: In a 80 cm^2 plastic pot, upland soil was filled, and seeds of barnyard grass (Ec) and green foxtail (Se) were sown and covered with soil. A wettable powder prepared in accordance with Formulation Example 1 was diluted with water and uniformly applied to the soil surface by means of a small size spray at a rate of 100 l per 10 ares, so that the dose of the active ingredient would be 100 g per 10 ares. Thereafter, cultivation was carried out in a green house, and on the 21st day after the treatment, the herbicidal effects were examined in accordance with the standards as identified in Table 44.

barnyard grass (Eo) [4] = assay: Test Example 1: herbicidal effects by flooded paddy field treatment; parameters: herbicidal effects, Eo (barnyard grass):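 0-5 growth inhibition grade; 5 = over 90%; 4 = 70-90%; 3 = 50-70%; 2 = 30-50%; 1 = 10-30%; 0 = under 10%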; conditions: for Herbicidal effect index, Eo: dose 100 gai/10a, examined on 21st day after treatment, index 0-5 per Table 44; for herbicidal effects, Eo (barnyard grass): dose 100 g active ingredient per 10 ares, examined on the 21st day after treatment, standards of Table 44;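 on Herbicidal effect index, Eo: 0-5 growth inhibition grade; 5 = over 90%; 4 = 70-90%; 3 = 50-70%; 2 = 30-50%; 1 = 10-30%; 0 = under 10%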
Procedure, shortened: as §1

| Or (effect on crop plant rice, index) (rice (Or)) | SMILES | Herbicidal effect index, Mo (monochoria (Mo) [1]) | Mo (herbicidal effects, index) (monochoria (Mo) [2]) | Eo (herbicidal effects, index) (barnyard grass (Eo) [3]) | herbicidal effects, Ec (barnyard grass) (barnyard grass (Ec)) | herbicidal effects, Se (green foxtail) (green foxtail (Se)) | Herbicidal effect index, Eo (barnyard grass (Eo) [4]) | Mo (herbicidal effect index) (monochoria (Mo) [2]) | Eo (herbicidal effect index) (barnyard grass (Eo) [3]) | Or (herbicidal effect index on crop) (rice (Or)) | herbicidal effects, Mo (monochoria) (monochoria (Mo) [1]) | herbicidal effects, Eo (barnyard grass) (barnyard grass (Eo) [4]) |
| --- | --- | --- | --- | --- | --- | --- | --- | --- | --- | --- | --- | --- |
| 1 | CCCN(C(=O)Cc1ccc(C)cc1)C(c1cncnc1C(F)(F)F)C(C)C (racemic) [Compound 1-62] | 5 | 5 | 5 | 4 | 4 | 5 | – | – | – | – | – |
| 1 | CCCN(C(=O)Cc1ccccc1)C(c1cncnc1C(F)(F)F)C(C)C (racemic) [Compound 1-63] | 5 | 5 | 5 | 5 | 5 | 5 | – | – | – | – | – |
| 1 | CCc1ccc(CC(=O)N(C)C(c2cncnc2C(F)(F)F)C(C)C)cc1 (racemic) [Compound 1-67] | 5 | 5 | 5 | 5 | 5 | 5 | – | – | – | – | – |
| 0 | Cc1ccc(CC(=O)N(C)C(c2cncnc2C(F)(F)F)C(C)C)cc1C (racemic) [Compound 1-72] | 5 | 5 | 5 | 5 | 4 | 5 | – | – | – | – | – |
| 0 | CC(C)C(c1cncnc1C(F)(F)F)N(C)C(=O)Cc1cccc([N+](=O)[O-])c1 (racemic) [Compound 1-74] | 5 | 5 | 5 | 5 | 5 | 5 | – | – | – | – | – |
| 1 | CN(C(=O)Cc1ccccc1)C(c1cncnc1C(F)(F)Cl)C1CC1 (racemic) [Compound 1-91] | 5 | 5 | 5 | 4 | 5 | 5 | – | – | – | – | – |
| – | CC(C)C(c1cncnc1C(F)(F)F)N(C(=O)Cc1ccccc1)C(C)C (racemic) [Compound 1-103] | 5 | – | – | 5 | 5 | 5 | 5 | 5 | 1 | – | – |
| – | COCN(C(=O)Cc1ccc(C)cc1)C(c1cncnc1C(F)(F)F)C(C)C (racemic) [Compound 1-106] | 5 | – | – | 5 | 4 | 5 | 5 | 5 | 0 | – | – |
| – | CC(C)C(c1cncnc1C(F)(F)F)N(C)C(=O)OCc1ccccc1 (racemic) [Compound 1-118] | 5 | – | – | 5 | 5 | 5 | 3 | 5 | 0 | – | – |
| – | Cc1cc(CC(=O)N(C)C(c2cncnc2C(F)(F)F)C(C)C)ccc1Cl (racemic) [Compound 1-120] | 5 | – | – | 5 | 4 | 5 | 5 | 5 | 0 | – | – |
| – | Cc1ccc(CC(=O)N(C)C(c2cncnc2C(F)(F)F)C(C)C)cc1Cl (racemic) [Compound 1-121] | 5 | – | – | 5 | 4 | 5 | 5 | 5 | 1 | – | – |
| – | CC(C)C(c1cncnc1C(F)(F)F)N(C)C(=O)Cc1c(F)cccc1F (racemic) [Compound 1-123] | 5 | – | – | 5 | 5 | 5 | 5 | 5 | 1 | – | – |
| – | CC(C)C(c1cncnc1C(F)(F)F)N(C)C(=O)Cc1ccc(Cl)cc1Cl (racemic) [Compound 1-124] | 5 | – | – | 5 | 5 | 5 | 5 | 5 | 0 | – | – |
| – | CC(C)C(c1cncnc1C(F)(F)F)N(C)C(=O)COc1ccccc1F (racemic) [Compound 1-125] | 5 | – | – | 5 | 5 | 5 | 5 | 5 | 0 | – | – |
| – | CC(C)C(c1cncnc1C(F)(F)F)N(C)C(=O)COc1cccc(F)c1 (racemic) [Compound 1-126] | 5 | – | – | 5 | 5 | 5 | 5 | 5 | 1 | – | – |
| – | CC(C)c1ncncc1C(C(C)C)N(C)C(=O)Cc1ccc(Cl)cc1 (racemic) [Compound 1-130] | – | – | – | 5 | 5 | – | 5 | 5 | 1 | 5 | 5 |
| – | Cc1ccc(CC(=O)N(C)C(c2cncnc2C(C)C)C(C)C)cc1 (racemic) [Compound 1-131] | – | – | – | 5 | 5 | – | 5 | 5 | 1 | 5 | 5 |
| – | Cc1ccccc1OCC(=O)N(C)C(c1cncnc1C(F)(F)F)C(C)C (racemic) [Compound 1-134] | – | – | – | 5 | 5 | – | 5 | 5 | 0 | 5 | 5 |
| – | Cc1cccc(OCC(=O)N(C)C(c2cncnc2C(F)(F)F)C(C)C)c1 (racemic) [Compound 1-135] | – | – | – | 5 | 5 | – | 5 | 5 | 1 | 5 | 5 |
| – | Cc1ccc(OCC(=O)N(C)C(c2cncnc2C(F)(F)F)C(C)C)cc1 (racemic) [Compound 1-136] | – | – | – | 5 | 5 | – | 5 | 5 | 1 | 5 | 5 |
| – | CN(C(=O)Cc1ccc(Cl)cc1)C(c1cncnc1C(F)(F)F)C1CCCC1 (racemic) [Compound 1-139] | – | – | – | 5 | 5 | – | 5 | 5 | 0 | 5 | 5 |
| – | CN(C(=O)Cc1ccc(Br)cc1)C(c1cncnc1C(F)(F)F)C1CCCC1 (racemic) [Compound 1-140] | – | – | – | 5 | 5 | – | 5 | 5 | 0 | 5 | 5 |
| – | Cc1ccc(CC(=O)N(C)C(c2cncnc2C(F)(F)F)C2CCCC2)cc1 (racemic) [Compound 1-141] | – | – | – | 5 | 5 | – | 5 | 5 | 1 | 5 | 5 |

From patent US6806230B1, “Pyrimidine derivatives and herbicides containing them” (Kumiai Chemical Industry Co., Ltd., priority 1999, dated 2004)
